Values joined by “and” are separate entries in the source; they are usually repeats but may differ in a detail not shown here. Equal entries are not always repeated. Where two headings read alike, the source gives them in different places. Each block holds one substance with its values, some of them ahead of it.
What was measured:
[1] = system: activated platelet surface; conditions: literature, read-out: Kd, binding to activated platelet surface, cited from earlier work
activated platelets = experiment: EQELS binding of proteins to thrombin-activated platelets; set-up: species or system human
Experimental: (§1) Fresh gel-filtered platelets were used in all experiments. Blood from healthy donors was collected in acid-citrate-dextrose and prostacyclin (5 μg/mL, PGI2, Sigma Chemical Co., St. Louis, Mo.). Platelet-rich-plasma was obtained by centrifugation of the anticoagulated blood at 150 g for 15 minutes. […] Gel-filtered platelets were obtained from the application of washed platelets to a Sepharose CL-2B column (Pharamica Inc., Uppsala, Sweden) equilibrated with calcium-free albumin-free Tyrode's buffer. Platelets for light scattering experiments were suspended in buffer containing 20 mM NaCl, 265 mM sucrose, 2 mM HEPES, pH 7.4 and activated with human α-thrombin (0.2 NIH units/mL). See Li, X., Gabriel, D. A. The physical exchange of factor VIII (FVIII) between von Willebrand factor and activated platelets and the effect of the FVIII B-domain on platelet binding (1997) Biochem. J. 36, 10760-10767. […] EQELS spectra of the gel filtered platelets gave a single homogeneous mobility indicating the lack of microparticles. No change is observed in the platelet mobility spectrum on the addition of rFVIIa over the concentration range where rFVIIa would be expected to bind to tissue factor if it was present, indicating an absence of TF in the preparation.
Electrophoretic quasi-elastic light scattering offers the ability to monitor changes in the surface of blood cells resulting from cell activation and ligand binding. Gabriel, D. A., Reece, N., Witte, J., and Muga, K. Electrophoretic light scattering studies on the interaction of fibrinogen with resting and activated human platelets (1993) Blood Coagul. Fibrinolysis 4, 397-403; Johnson, C., and Gabriel, D. A. (1995) Laser Light Scattering, Dover, N.Y. The electrophoretic mobility of activated platelets changes when exposed to a known ligand and that the mobility change is the result of ligand binding. […] Under these experimental conditions, resting gel-filtered platelets have an electrophoretic mobility of −0.9 (μ-cm)/(volt-sec) and activated platelets have a mobility of −0.65(μ-cm)/(volt-sec). Loading the platelet surface with a ligand, such as a FIX or FVIII, changes the platelet electrophoretic mobility. While the absolute mobility varies slightly from donor to donor, there is minimal variation in a given donor. The dependence of the change in the platelet electrophoretic mobility on the addition of FIX permits calculation of the binding constant for FIX to the activated platelet. It is not the magnitude of the change in the platelet electrophoretic mobility, μ, that determines the binding constant, but how the change in μ depends on the concentration of the ligand FIX. The effect of ligand binding on the platelet mobility varies with the ligand, and is dependent on the extent of ligand binding, the extent of surface modification caused by ligand binding, and on the net charge of the ligand itself.
EQELS measurements were made on a multi-angle quasi-elastic light scattering spectrometer (DELSA 440, Coulter Electronics, Inc., Hialeah, Fla.). See Li, X., Gabriel, D. A. Biochem. J. 36, 10760-10767 (1997); Johnson, C., and Gabriel, D. A. (1995) Laser Light Scattering, Dover, N.Y.
Activated platelets and activated FVIII were prepared by activation with 0.2 NIH U/mL human α-thrombin for 5 minutes. After activation, residual thrombin was inactivated by addition of 2.5 μM phenylalanyl prolinyl arginine chloromethyl ketone (PPACK, Calbiochem, La Jolla, Calif.). FIX, FIXa, FVIIIa, and rFVIIa were incubated with platelets for 10 minutes before EQELS measurements.
The binding coefficient (Kd) of the proteins to platelets was determined by fitting the data from the binding experiment to:
[formula] where, μ is the electrophoretic mobility, μ0 is the mobility in the absence of added protein, Δμ is the calculated maximal change in mobility at the saturating concentration of protein. This model assumes one class of binding sites for the specific protein ligand on the platelets. […]

resting platelets = experiment: EQELS binding to resting platelets; set-up: species or system human; conditions: data not shown
Experimental: as §1, with “preparation. […]” for “preparation.”

FIX = biological target: T1, FIX (Homo sapiens, UniProt P00740); experiment: Functional (chromogenic) assay for activation of FIX on activated platelets; type: biochemical
T1 construct: made in house
Experimental: FIG. 12 is a graph illustrating the amount of FIX activated as a function of time and at different concentrations of rFVIIa (between 0 nM and 49 nM) for a chromogenic assay to show activation of FIX by rFVIIa in the absence of TF.
All assays were run in Tyrodes buffer with 2 mM CaCl2. Platelets were activated with 0.2 NIH units/ml of human α-thrombin for 10 minutes at 37° C. FVIII at 5 units/ml were included with the platelets and thrombin. Thrombin was neutralized with hirudin from a medium titrated against an α-thrombin standard. FVIIa at varying concentrations was added to the platelets for 10 minutes. Plasma concentrations of FIX at 80 nM were added and incubated for varied times. FIXa was assayed in a two stage assay. Platelets with activated FIX were incubated with plasma concentrations of FX for 5 minutes, then the amount of FXa was measured by adding plasma concentrations of prothrombin along with a […] (0.5 mM Perfachrome Th). […] Thrombin generation was measured as the change in the absorbance as the p-nitroanilide substrate was cleaved as a function of time. As expected, substrate cleavage fit a second order pattern and the rate of thrombin generation was determined from the first derivative of the absorbance versus time data.

[2] = rFVIIa concentration after therapeutic infusion; type: in vivo; conditions: therapeutic infusion for a bleeding diathesis, estimated
[3] = biological target: T2, platelet-bound zymogen FIX (Homo sapiens, UniProt P00740); experiment: EQELS time and concentration dependence of zymogen FIX activation by rFVIIa on activated platelets; type: cell-based; conditions: FIX 10 nM
T2 construct: made in house
Experimental: FIG. 11A is a graph of the time and concentration dependence of rFVIIa on the activation of zymogen FIX. Platelets were activated with thrombin followed by inhibition of thrombin with PPACK. The activated platelets were then loaded with rFVIIa (0.075 nM, 1 nM, or 10 nM) and monitored as a function of time. The mobility at the initial time (zero) is the mobility for platelets loaded with zymogen FIX. […] Changes in the platelet mobility result from FIX activation.
Zymogen FIX at varying concentrations was added to the thrombin activated platelets that in some experiments included FVIIIa followed by a 10 minute incubation period. After this incubation period, rFVIIa was added to activated platelets coated with zymogen FIX. The EQELS spectrum was then obtained.
A decrease in the […] of FIX was used to detect activation of zymogen FIX by rFVIIa.

[4] = 4 mM Ca++, 3 nM FVIIIa, read-out: Binding Coefficient (Kd), interaction with activated platelets
[5] = 4 mM Ca++, No FVIIIa, read-out: Binding Coefficient (Kd), interaction with activated platelets

T2 sequence (P00740 29-461 limits assumed): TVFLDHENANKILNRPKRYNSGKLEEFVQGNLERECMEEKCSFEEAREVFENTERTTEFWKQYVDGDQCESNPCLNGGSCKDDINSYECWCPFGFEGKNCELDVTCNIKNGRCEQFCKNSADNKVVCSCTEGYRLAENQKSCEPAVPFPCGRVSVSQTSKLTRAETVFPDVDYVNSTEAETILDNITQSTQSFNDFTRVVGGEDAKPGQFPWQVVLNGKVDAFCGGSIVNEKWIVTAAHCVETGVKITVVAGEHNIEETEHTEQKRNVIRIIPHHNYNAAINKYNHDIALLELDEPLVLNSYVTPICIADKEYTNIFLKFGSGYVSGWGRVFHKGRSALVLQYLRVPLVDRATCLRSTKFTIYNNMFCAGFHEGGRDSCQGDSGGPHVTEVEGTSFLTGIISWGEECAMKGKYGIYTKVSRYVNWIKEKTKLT
T1 sequence (P00740 29-461 limits assumed): as above

Substance: Activated coagulation factor IX [FIXa]
- Kd ([1]; in the presence of rFVIIIa): 0.6 nM
- Kd ([1]; no rFVIIIa): 2.5 nM
- Kd (activated platelets; [4]): 0.57 nM
- Kd (activated platelets; [5]): 1.9 nM
- Kd (activated platelets; 4 mM calcium, 3 nM rFVIIIa, read-out: binding constant (Kd) to activated platelets): 0.569 nM and 0.6 nM
- Kd (activated platelets; 4 mM calcium, no rFVIIIa, read-out: binding constant (Kd) to activated platelets): 1.9 nM and 2 nM
- binding to activated platelets (change in platelet electrophoretic mobility) (activated platelets; absence of calcium): no binding
- binding to resting platelets (resting platelets): do not bind

Substance: Coagulation factor IX [FIX]
- Kd (activated platelets; 10 nM rFVIIa, 4 mM calcium, 3 nM rFVIIIa, read-out: binding coefficient (Kd) for zymogen FIX to activated platelets in presence of rFVIIa): 0.84 nM
- Kd (activated platelets; 10 nM rFVIIa, 4 mM calcium, no rFVIIIa, 10 min incubation, read-out: binding coefficient (Kd) for zymogen FIX to activated platelets in presence of rFVIIa): 1.62 nM and 1.6 nM
- Kd (activated platelets; [4]): 5.8 nM
- Kd (activated platelets; [5]): 7.9 nM
- Kd (activated platelets; FIX + FVIIa (10 nM), 4 mM Ca++, No FVIIIa, read-out: Binding Coefficient (Kd) for FIX in the presence of FVIIa, activated platelets): 1.62 nM
- binding to resting platelets (resting platelets): do not bind

- FXa and thrombin production (FIX; dependent on concentration of added rFVIIa, not shown in FIG. 12): produced
- activation of zymogen FIX by rFVIIa (EQELS) ([3]; 0.075 nM rFVIIa, approximately 30 minutes): minimal activation
- activation of zymogen FIX by rFVIIa (EQELS) ([3]; 1 nM rFVIIa): further activation
Substance: Recombinant activated coagulation factor Vila [rFVIIa]
- activation of platelet-bound zymogen FIX (chromogenic assay) (FIX; rFVIIa 10, 20, 30, 40 nM, absence of TF): linear in time and directly proportional to the concentration of added rFVIIa
- concentration of rFVIIa after therapeutic infusion [2]: approximately 30 nM
- change in platelet mobility on addition of rFVIIa (activated platelets; concentration range where rFVIIa would be expected to bind tissue factor): no change
- change in platelet surface charge (activated platelets; conditions identical to FIXa binding experiment): does not change
- rFVIIa concentration at which it binds to platelets in the presence of FIX (activated platelets; in the presence of FIX): ≥ 10 nM
- change in electrophoretic mobility of platelets on addition of rFVIIa (activated platelets; rFVIIa 0 to 40 nM): did not change
- binding of rFVIIa to activated platelets (activated platelets; rFVIIa at 10 nM): does not bind
- binding of rFVIIa to activated platelets (activated platelets; rFVIIa greater than 100 nM): can be detected
- direct binding of rFVIIa to activated platelet surface (activated platelets; rFVIIa less than 100 nM, even in the presence of calcium): no direct binding
- binding of rFVIIa to activated platelets (activated platelets; rFVIIa range of 0.75 to 10 nM): does not bind
- Kd (activated platelets; very high rFVIIa concentrations, absence of calcium (unpublished data), read-out: Kd of rFVIIa binding to platelets): 250 nM
- Kd (activated platelets; very high rFVIIa concentrations, presence of calcium (unpublished data), read-out: Kd of rFVIIa binding to platelets): 123 nM
- conversion of zymogen FIX to activated FIX by rFVIIa (EQELS) ([3]; 10 nM rFVIIa): still more rapid rate

Reference: US8551405B2, “Electrophoretic interactive spectral methods and devices for the detection and/or characterization of biological particles” (The University of North Carolina at Chapel Hill, priority 2004, dated 2013)
